Test results reported in ChEMBL document CHEMBL4028859, “Inhibition of Calcium Dependent Protein Kinase 1 (CDPK1) by Pyrazolopyrimidine Analogs Decreases Establishment and Reoccurrence of Central Nervous System Disease by Toxoplasma gondii” (J Med Chem, 2017).

What was measured:
[1] = Apparent permeability from apical to basolateral side in human Caco2 cells at 5 uM by LC-MS/MS analysis; type: ADME, cell-based; settings: caco-2, 5 µM
[2] = Apparent permeability from basolateral to apical side in human Caco2 cells at 5 uM by LC-MS/MS analysis; type: ADME, cell-based; settings: caco-2, 5 µM
Mus musculus [3] = test: (§1) Tmax in Swiss albino mouse at 10 mg/kg, po administered as single dose by LC-MS/MS analysis; type: ADME, organism-based; settings: in vivo
[4] = Initial concentration in Swiss albino mouse at 3 mg/kg, iv administered as single dose by LC-MS/MS analysis; type: ADME, organism-based; settings: in vivo
Mus musculus [5] = test: (§2) Cmax in Swiss albino mouse at 10 mg/kg, po administered as single dose by LC-MS/MS analysis; type: ADME, organism-based; design: dose 10 mg/kg, route oral; settings: in vivo
Mus musculus [6] = test: (§3) AUClast in Swiss albino mouse at 10 mg/kg, po administered as single dose by LC-MS/MS analysis; type: ADME, organism-based; design: dose 10 mg/kg, route oral, time 0 - last; settings: in vivo
Mus musculus [7] = test: (§4) AUC (infinity) in Swiss albino mouse at 10 mg/kg, po administered as single dose by LC-MS/MS analysis; type: ADME, organism-based; design: dose 10 mg/kg, time infinity, route oral; settings: in vivo
Mus musculus [8] = test: (§5) Volume of distribution at steady state in Swiss albino mouse at 3 mg/kg, iv administered as single dose by LC-MS/MS analysis; type: ADME, organism-based; settings: in vivo
[9] = as §1; type: ADME, organism-based; settings: Swiss albino, in vivo
[10] = as §2; type: ADME, organism-based; design: dose 10 mg/kg, route oral; settings: Swiss albino, in vivo
[11] = (§6) AUClast in Swiss albino mouse at 3 mg/kg, iv administered as single dose by LC-MS/MS analysis; type: ADME, organism-based; design: dose 3 mg/kg, time 0 - last, route intravenous; settings: Swiss albino, in vivo
[12] = as §3; type: ADME, organism-based; design: dose 10 mg/kg, route oral, time 0 - last; settings: Swiss albino, in vivo
[13] = (§7) AUC (infinity) in Swiss albino mouse at 3 mg/kg, iv administered as single dose by LC-MS/MS analysis; type: ADME, organism-based; design: dose 3 mg/kg, time infinity, route intravenous; settings: Swiss albino, in vivo
[14] = as §4; type: ADME, organism-based; design: dose 10 mg/kg, time infinity, route oral; settings: Swiss albino, in vivo
[15] = as §5; type: ADME, organism-based; settings: Swiss albino, in vivo, read-out: Vdss
Mus musculus [16] = test: Oral bioavailability in Swiss albino mouse at 10 mg/kg administered as single dose by LC-MS/MS analysis; type: ADME, organism-based; settings: in vivo
[17] = Dissociation constant, pKa of compound; type: physicochemical
Mus musculus [18] = test: as §6; type: ADME, organism-based; design: dose 3 mg/kg, time 0 - last, route intravenous; settings: in vivo
[19] = Ratio of total drug level in CNS to serum in Swiss albino mouse at 10 to 50 mg/kg, po administered as single dose upto 24 hrs by LC-MS/MS analysis; type: ADME, organism-based
[20] = Ratio of total drug level in brain to plasma in Swiss albino mouse at 10 to 50 mg/kg, po administered as single dose upto 24 hrs by LC-MS/MS analysis; type: ADME, organism-based; settings: read-out: BPR
Mus musculus [21] = test: as §7; type: ADME, organism-based; design: dose 3 mg/kg, time infinity, route intravenous; settings: in vivo

Papp [1] | Papp [2] | Tmax (Mus musculus [3]) | C0 [4] | Cmax (Mus musculus [5]) | AUClast (Mus musculus [6]) | AUC (Mus musculus [7]) | Vdss (Mus musculus [8]) | pKa [17] | AUClast (Mus musculus [18]) | SMILES | further results
42.9 ×10⁻⁶ cm/s | 28.7 ×10⁻⁶ cm/s |  | 6890 ng/mL |  |  |  |  |  |  | CC(C)(C)n1nc(Cc2cccc(Cl)c2)c2c(N)ncnc21 | Tmax [9]: 15 min; Cmax [10]: 585 ng/mL; AUC(0-t) [11]: 1080 ng·h/mL; AUC(0-t) [12]: 919 ng·h/mL; AUC(0-inf) [13]: 1080 ng·h/mL; AUC(0-inf) [14]: 931 ng·h/mL; Vd [15]: 1.09 L/kg; F (Mus musculus [16]): 26%
1.07 ×10⁻⁶ cm/s | 9.58 ×10⁻⁶ cm/s | 120 min | 536 ng/mL | 182.56 ng/mL | 757.85 ng·h/mL | 891.24 ng·h/mL | 19.59 L/kg | 10.4 | 449.57 ng·h/mL | Nc1ncnc2c1c(Oc1cccc(Cl)c1)nn2CC1CCNCC1 | 
22.8 ×10⁻⁶ cm/s | 21.2 ×10⁻⁶ cm/s | 15 min | 1210 ng/mL | 1048.8 ng/mL | 3058.44 ng·h/mL | 3547.95 ng·h/mL | 3.68 L/kg | 7.1 | 975.9 ng·h/mL | Nc1ncnc2c1c(Oc1cccc(Cl)c1)nn2CC1CCNCC1(F)F (configuration not stated) | Kp at 24 h [19]: 5.6; Kp at 24 h [20]: 1.3
15 ×10⁻⁶ cm/s | 14.6 ×10⁻⁶ cm/s | 15 min | 2740 ng/mL | 76.69 ng/mL | 85.47 ng·h/mL | 91.42 ng·h/mL | 2.32 L/kg |  | 619.33 ng·h/mL | Cc1cccc(Oc2nn(C(C)(C)C)c3ncnc(N)c23)c1 | AUC (Mus musculus [21]): 625.04 ng·h/mL
27.1 ×10⁻⁶ cm/s | 25.3 ×10⁻⁶ cm/s |  |  |  |  |  |  | 7.1 |  | Nc1ncnc2c1c(Sc1cccc(Cl)c1)nn2CC1CCNCC1(F)F (configuration not stated) | 
2.76 ×10⁻⁶ cm/s | 25.6 ×10⁻⁶ cm/s |  |  |  |  |  |  | 10.4 |  | Nc1ncnc2c1c(Sc1cccc(Cl)c1)nn2CC1CCNCC1 | 

SMILES | Papp [1] | Papp [2] | Tmax (Mus musculus [3]) | C0 [4] | Cmax (Mus musculus [5]) | AUClast (Mus musculus [6]) | AUC (Mus musculus [7]) | Vdss (Mus musculus [8]) | pKa [17] | AUClast (Mus musculus [18]) | further results
CC(C)(C)n1nc(Oc2cccc(Cl)c2)c2c(N)ncnc21 | 34.8 ×10⁻⁶ cm/s | 30.6 ×10⁻⁶ cm/s | 15 min | 5470 ng/mL | 1136.36 ng/mL | 1172.75 ng·h/mL | 1279.2 ng·h/mL | 1.1 L/kg |  |  | 
